One block for each compound: values may come before it.
Assays:
[1] = Fluorescence emission of quencher/dye labelled nucleotide; type: physicochemical
Protocol: The fluorescence emission of an approx. 4 μM solution of the quencher/dye labelled nucleotide 22, a 4 μM solution of Atto532 dye and an equimolar mixture of Atto532 dye and quencher labelled nucleotide 21 (4 μM) were measured in 10 mM Tris buffer pH 8.0, between 500 nm and 700 nm (excitation wavelength: 532 nm) (FIG. 23). The fluorescence of the nucleotide 22 was approximately 1500-fold lower than that of the free dye in solution, and approximately 1100-fold lower than the equimolar solution of the free dye and the quencher labelled nucleotide 21.

Pol 217 = Pol 217 catalyzed primer extension: incorporation of blocked nucleotide analog into primer DNA (urea gel analysis); type: biochemical; conditions: for incorporation of phosphodiester blocked nucleotides by Pol 217: nucleotide 10 μM
Protocol: Pol 217 (15 μg/ml) was incubated at 30° C. in Pol buffer (50 mM TRIS pH 7.5, 0.05% Tween 20, 6 mM MgSO4, 1 mM EDTA, 50 mM NaCl) with 20 nM DNA (P21 primer annealed to Diff template AG). A time zero aliquot was taken for each concentration and then pppT3′PO4(EO2 was added at 10, 5, 2 or 1 μM final concentration to start the reaction. Tubes are incubated at 30° C. and aliquots were taken at 0.33, 0.66, 1, 2, 5, and 15 mins from the 4 reaction tubes for quenching and 15% urea acrylamide gel analysis. 1 mM dNTPs were added to the remaining 4 reaction tubes and after a further 10 mins an aliquot was taken for gel analysis (chase).
Pol 217 was tested in Pol buffer at 55° C.
Incorporation of gamma hexynyl-pppT3′PO4Me2 was tested in Pol buffer at 65° C. with 10 μM nucleotide and 15 μg/mlpolymerase (Pol217 or Bst). A time zero sample was removed before initiation of the reaction with nucleotide and aliquots were quenched for gel analysis at 0.33, 0.66, 1, 2, 5 and 15 minutes.

Bst = target: T1, Bst (Geobacillus stearothermophilus, UniProt P52026); assay: Bst polymerase primer extension with blocked nucleotide analog (gel analysis); type: biochemical
T1 sequence (P52026 1-876): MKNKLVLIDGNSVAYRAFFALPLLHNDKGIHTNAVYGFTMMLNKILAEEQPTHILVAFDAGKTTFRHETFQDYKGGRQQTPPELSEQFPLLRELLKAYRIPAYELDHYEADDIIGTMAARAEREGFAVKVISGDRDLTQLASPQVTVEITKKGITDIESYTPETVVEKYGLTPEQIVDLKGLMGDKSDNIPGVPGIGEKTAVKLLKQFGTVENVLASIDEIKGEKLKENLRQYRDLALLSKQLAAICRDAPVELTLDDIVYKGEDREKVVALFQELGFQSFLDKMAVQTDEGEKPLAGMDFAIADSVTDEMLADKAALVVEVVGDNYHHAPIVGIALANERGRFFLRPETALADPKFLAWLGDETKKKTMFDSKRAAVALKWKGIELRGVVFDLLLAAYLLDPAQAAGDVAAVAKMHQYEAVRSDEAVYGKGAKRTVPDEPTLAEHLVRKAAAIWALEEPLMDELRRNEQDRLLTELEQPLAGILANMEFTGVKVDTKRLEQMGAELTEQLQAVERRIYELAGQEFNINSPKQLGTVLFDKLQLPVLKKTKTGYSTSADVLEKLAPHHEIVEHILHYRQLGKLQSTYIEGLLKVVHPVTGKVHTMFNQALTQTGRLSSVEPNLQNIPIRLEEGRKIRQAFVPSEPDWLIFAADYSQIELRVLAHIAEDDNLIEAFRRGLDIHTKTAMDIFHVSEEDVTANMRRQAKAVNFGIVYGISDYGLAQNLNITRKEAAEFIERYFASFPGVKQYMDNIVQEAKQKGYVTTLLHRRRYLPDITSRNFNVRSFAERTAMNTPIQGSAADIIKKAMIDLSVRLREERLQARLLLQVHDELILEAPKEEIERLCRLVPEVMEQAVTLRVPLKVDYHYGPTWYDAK
Protocol: Incorporation of gamma hexynyl-pppT3′PO4Me2 was tested in Pol buffer at 65° C. with 10 μM nucleotide and 15 μg/mlpolymerase (Pol217 or Bst). A time zero sample was removed before initiation of the reaction with nucleotide and aliquots were quenched for gel analysis at 0.33, 0.66, 1, 2, 5 and 15 minutes. After 15 minutes, 5 μl of 100 μM dNTPs was added to the remaining reaction tubes (˜20 μl) and incubation continued for 10 mins before a chase aliquot was taken for gel analysis. Thus, for each polymerase there was a time course of 0, 0.33, 0.66, 1, 2, 5, 15 mins and chase shown from left to right across the gel in FIG. 13.

Endonuclease IV = Endonuclease IV (Escherichia coli, UniProt P0A6C1); conditions: 0.1 mM nucleotide, 500 units/mL Endonuclease IV, 37° C., pH 7.9, up to 3 days
Excerpt: Aliquots were taken at set time points and analyzed by HPLC chromatography.

Klenow = target: T2, Klenow (Escherichia coli, UniProt P00582); assay: Klenow polymerase primer extension with blocked nucleotide analog (gel analysis); type: biochemical; conditions: conditions tested; chase lane showed active polymerase
T2 construct: Bst, Vent exo- and Klenow polymerases were tested

E. coli EndoIV = E. coli EndoIV (Escherichia coli, UniProt P0A6C1); conditions: for EndoIV removal of phosphotriester blocking moiety from primer DNA extended with the nucleotide: large quantities of E. coli EndoIV, 37° C. or 55° C., extended incubation times
Protocol: Primer DNA with either a 3′ PO4PrOH block (−ve and EndoIV) or a free 3′OH (+ve) was radiolabelled and bound to an A template strand. […] Aliquots were removed at 0, 5, 15, 30 and 60 min for quenching and gel analysis (left to right respectively). “+ve” is the time course for unblocked DNA plus EndoIV, “EndoIV” is blocked DNA plus E. coli EndoIV and “−ve” is blocked DNA without E. coli EndoIV.
Similar reactions to those described above in the context of FIG. 7 were conducted, but the blocked extension products were generated using Pol 217 to incorporate various phosphotriester nucleotides onto the primer DNA. […] Phosphotriester blocking moieties tested included pppT3′PO4(Et)2, pppT3′PO4(Et)(Pr-Cap), pppT3′PO4(Et)(PrOH), pppT3′PO4MeBu and pppT3′PO4(Et)(SSOH).
A ^33P biotinylated 10 A template hairpin (62mer) was bound to magnetic streptavidin beads (4 pmoles) (1) and incubated with Pol217 (15 μg/ml) in Pol buffer and 10 μM pppT3′PO4MeBu for 10 mins at 55° C. […] The DNA was then removed to a magnet and washed twice in 1×B+W buffer (5 mM TRIS pH 7.5, 0.5 mM EDTA, 1M NaCl) and then washed twice in Ada buffer (50 mM TRIS pH 8.3, 1 mM EDTA, 3 mM DTT, 1 mg/ml BSA). The DNA was then incubated in Ada buffer with Ada protein (225 pmoles) at 37° C. for 3 h (3). The DNA was then removed to a magnet and washed twice in 1×B+W and then twice in NEB 3 buffer and then divided into 2 aliquots. To one aliquot (4) (2 pmoles) was added Pol 217 (15 μg/ml), E. coli EndoIV 10 U and FFT (5 μM) in NEB 3 buffer to a total volume of 100 μl. The sample was incubated at 37° C. and at time points of 0, 3, 10, 30, 60 and 120 mins a 5 μl sample was removed and quenched for 12% gel analysis. After 120 mins 10 μl of 100 μM dNTP was added to the remaining sample to chase the primer to the end (if not blocked) and an aliquot was taken and quenched after a further 20 mins at 37° C. […] The second aliquot (2 pmoles) was treated similarly, but no E. coli Endo IV was added to the reaction mixture (w/o EndoIV).
Eight pmoles of biotinylated 10 A hairpin DNA (62mer) bound to magnetic streptavidin beads (1) was incubated with Pol 217 (15 μg/ml) in Pol buffer with 10 μM pppT3′PO4(Et)(SSOH) in 200 μl at 55° C. for 15 mins (2). Then 2 μl of 100 mM tri(hydroxylpropyl)phosphine (THP) was added to the tube and the samples incubated for a further 5 mins at 55° C. […] The DNA was then removed to a magnet and washed twice in 1×B+W and twice in NEB 3 buffer. The DNA was then divided into two aliquots. To the first aliquot (4 pmoles) was added 4 U E. coli EndoIV, 15 μg/ml Pol 217, 10 μM pppT3′PO4MeBu in 100 μl of NEB3 buffer (4) and the other aliquot (4 pmoles) had the same additions but no EndoIV (w/o EndoIV). At time points of 0, 1, 5, 10, 30, 60 and 120 mins and sample was removed and quenched for 12% gel analysis.

Vent exo- = Vent exo- (Thermococcus litoralis, UniProt P30317, D141A/DEL1082-1471/DEL495-1032/E143A); assay: Vent exo- polymerase primer extension with blocked nucleotide analog (gel analysis); type: biochemical; conditions: conditions tested; chase lane showed active polymerase
Pol 427 = Pol 427 catalyzed primer extension: incorporation of blocked nucleotide analog (gel analysis); type: biochemical; conditions: Pol buffer, 37° C., 1 h, Pol 427 30 μg/ml
[2] = tested on: Pol 217, E. coli Endo IV, Ada protein; assay: Single pot multi-cycle extension with Pol 217, Ada protein and Endo IV (gel); type: biochemical; conditions: 37° C., 10 μM nucleotide
Protocol: A tube was incubated at 37° C. containing Pol 217 (15 μg/ml-16.5 pmoles), E. coli Endo IV (10 U), Ada protein (1000 pmoles) in 100 μl of 50 mM TRIS pH 8.0, 1 mg/ml BSA, 50 mM NaCl, 10 mM MgSO4 with 2 pmoles of primer (21mer) annealed to 10 A template DNA. After a time zero aliquot was removed and quenched for gel analysis, the reaction was started by the addition of 10 μM pppT3′PO4MeBu. At time points of 10, 30, 60, 120 and 240 minutes an aliquot was removed and quenched for gel analysis. Negative controls are shown where one protein was left out of the mixture in turn. A positive control for incorporation is shown of 10 μM FFT.

[3] = approx. 4 μM, 10 mM Tris pH 8.0, excitation 532 nm

Chain of Vent exo- (P30317 other isoform, or with tags, fused parts or gaps D141A/E143A/DEL495-1032/DEL1082-1471): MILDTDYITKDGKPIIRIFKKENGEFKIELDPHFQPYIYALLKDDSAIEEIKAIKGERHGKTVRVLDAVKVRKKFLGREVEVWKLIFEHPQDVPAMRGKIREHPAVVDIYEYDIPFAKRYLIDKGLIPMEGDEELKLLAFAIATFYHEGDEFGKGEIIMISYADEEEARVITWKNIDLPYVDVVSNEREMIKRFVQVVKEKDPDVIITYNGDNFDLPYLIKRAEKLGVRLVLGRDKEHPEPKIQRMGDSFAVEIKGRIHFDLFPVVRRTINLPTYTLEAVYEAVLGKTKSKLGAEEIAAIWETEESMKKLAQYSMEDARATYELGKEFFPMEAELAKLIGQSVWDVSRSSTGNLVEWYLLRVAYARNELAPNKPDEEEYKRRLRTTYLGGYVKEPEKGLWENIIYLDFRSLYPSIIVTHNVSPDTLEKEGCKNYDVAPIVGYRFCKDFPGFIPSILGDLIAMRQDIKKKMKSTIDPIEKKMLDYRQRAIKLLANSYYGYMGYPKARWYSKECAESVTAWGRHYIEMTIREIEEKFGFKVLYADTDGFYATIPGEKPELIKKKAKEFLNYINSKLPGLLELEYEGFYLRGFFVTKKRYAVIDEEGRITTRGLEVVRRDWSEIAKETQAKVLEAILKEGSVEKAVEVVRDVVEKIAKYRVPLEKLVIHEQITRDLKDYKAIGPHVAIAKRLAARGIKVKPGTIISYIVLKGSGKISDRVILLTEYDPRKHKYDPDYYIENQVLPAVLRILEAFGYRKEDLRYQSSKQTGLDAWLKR
T2 sequence (P00582 324-928): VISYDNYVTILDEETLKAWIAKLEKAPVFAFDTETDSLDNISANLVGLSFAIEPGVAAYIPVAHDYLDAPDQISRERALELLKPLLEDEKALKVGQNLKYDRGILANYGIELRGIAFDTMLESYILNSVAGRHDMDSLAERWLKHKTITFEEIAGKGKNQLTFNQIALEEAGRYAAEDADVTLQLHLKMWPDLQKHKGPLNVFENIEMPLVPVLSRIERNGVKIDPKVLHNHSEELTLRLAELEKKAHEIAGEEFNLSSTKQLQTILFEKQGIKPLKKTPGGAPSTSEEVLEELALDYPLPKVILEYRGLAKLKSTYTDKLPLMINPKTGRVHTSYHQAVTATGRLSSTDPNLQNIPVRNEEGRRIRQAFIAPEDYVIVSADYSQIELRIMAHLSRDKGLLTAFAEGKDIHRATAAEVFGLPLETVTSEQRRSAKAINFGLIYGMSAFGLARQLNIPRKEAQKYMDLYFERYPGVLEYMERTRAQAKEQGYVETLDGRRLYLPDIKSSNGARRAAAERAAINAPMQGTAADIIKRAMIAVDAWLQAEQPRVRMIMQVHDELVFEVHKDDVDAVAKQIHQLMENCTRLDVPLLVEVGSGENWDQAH

fluorescence lower than that of the free dye (Atto532) in solution [1, 3]: approximately 1500 fold
fluorescence lower than the equimolar solution of free dye and quencher labelled nucleotide 21 [1, 3]: approximately 1100 fold
quenching of fluorescence emission by BHQ2 ([1]; dye and quencher both on the nucleotide): > 99%
Compound: 5′-(γ-(BHQ2-peg3)triphosphate) 3′-(O-(12-(Atto532)amidododecyl)phosphate)thymidine [nucleotide 22]

quenching of free Atto532 dye by quencher labelled nucleotide in equimolar mixture ([1]; 4 μM each, 10 mM Tris pH 8.0, excitation 532 nm): does not quench efficiently
Compound: 5′-(γ-(BHQ2-peg3)triphosphate) 3′-(O-(12-aminododecyl)phosphate)thymidine [nucleotide 21]

Compound: C#CCCCCOP(=O)(O)OP(=O)(O)OP(=O)(O)OCC1OC(n2cc(C)c(=O)[nH]c2=O)CC1OP(=O)(OC)OC (stereo not drawn) [gamma hexynyl-pppT3′PO4Me2, 5′-(γ-(5-hexynyl)triphosphate) 3′-(O,O′-dimethyl phosphate) thymidine]
incorporation by Pol 217 and chase (Pol 217; Pol buffer, 65° C., 10 μM nucleotide, 0-15 min then dNTP chase): an incorporation band of n+1 was generated over time which did not chase away
band for extended primer with Bst (Bst; Pol buffer, 65° C., 10 μM nucleotide): absent

Compound: CCOP(=O)(O)OC1CC(n2cc(C)c(=O)[nH]c2=O)OC1COP(=O)(O)O (stereo not drawn) [pT-3′PO4Et, 5′ monophosphate T-3′PO4Et]
removal of 3′ phosphodiester blocking moiety from free nucleotide by EndoIV (HPLC) (Endonuclease IV): No deblocked pT-3′PO4Et was observed even after 3 days

Compound: CCOP(=O)(OCC)O[C@H]1C[C@H](n2cc(C)c(=O)[nH]c2=O)O[C@@H]1COP(=O)(O)OP(=O)(O)OP(=O)(O)O [pppT3′PO4(Et)2, 5′-triphosphate 3′-(O,O′-diethyl phosphate) thymidine]
incorporation by Klenow polymerase (Klenow): did not show any incorporation bands
EndoIV removal of phosphotriester blocking moiety from primer DNA extended with the nucleotide (E. coli EndoIV): failed to allow subsequent incorporation
extension of primer after chase with natural dNTPs (3′ block) (Pol 217; 30° C., 1 mM dNTPs chase, 10 mins): creates a 3′ blocked primer
incorporation into primer DNA by Pol 217 (n+1 band) (Pol 217; 30° C., Pol buffer, nucleotide 10, 5, 2 or 1 μM, 20 nM DNA, 0-15 min): extension by one base
time to complete incorporation by Pol217 (Pol 217; 65° C., incorporation buffer, 10 μM nucleotide): ≤ 20 s
incorporation by Bst polymerase (Bst; conditions tested, chase lane showed active polymerase): did not show any incorporation bands
incorporation by Vent exo- polymerase (Vent exo-): did not show any incorporation bands

Compound: CCOP(=O)(OCc1cc2c(cc1[N+](=O)[O-])OCO2)O[C@H]1C[C@H](n2cc(C)c(=O)[nH]c2=O)O[C@@H]1COP(=O)(O)OP(=O)(O)OP(=O)(O)O (stereo partly drawn) [pppT3′PO4(Et)(NPIP), 5′-triphosphate 3′-(O-ethyl, O′-(6-nitropiperonyl)phosphate) thymidine]
incorporation into primer by Pol 427 (Pol 427): converted to n+1

Compound: CCOP(=O)(OCCCO)OC1CC(n2cc(C)c(=O)[nH]c2=O)OC1COP(=O)(O)OP(=O)(O)OP(=O)(O)O (stereo not drawn) [pppT3′PO4(Et)(PrOH)]
EndoIV removal of phosphotriester blocking moiety from primer DNA extended with the nucleotide (E. coli EndoIV): failed to allow subsequent incorporation

Compound: CCOP(=O)(O)O[C@H]1C[C@H](n2cc(C)c(=O)[nH]c2=O)O[C@@H]1COP(=O)(O)OP(=O)(O)OP(=O)(O)O [pppT3′PO4Et, 5′ triphosphate 3′ (O-ethyl phosphate) thymidine]
incorporation of phosphodiester blocked nucleotides by Pol 217 (Pol 217; Pol buffer, 55° C.): low level incorporation was observed

Compound: CCCCOP(=O)(OC)O[C@H]1C[C@H](n2cc(C)c(=O)[nH]c2=O)O[C@@H]1COP(=O)(O)OP(=O)(O)OP(=O)(O)O (stereo partly drawn) [pppT3′PO4MeBu, 5′ triphosphate 3′ (O-methyl, O′-butyl phosphate) thymidine]
EndoIV unblocking of extended primer after Ada protein treatment (E. coli EndoIV; Ada protein 37° C. 3 h, then E. coli EndoIV 10 U, Pol 217, FFT, 37° C., 0-120 mins): unblocked by EndoIV
EndoIV removal of phosphotriester blocking moiety from primer DNA extended with the nucleotide (E. coli EndoIV): failed to allow subsequent incorporation
incorporation into 10 A hairpin DNA on streptavidin beads by Pol 217 (Pol 217; Pol buffer, 55° C., 10 μM nucleotide, 10-15 mins): converted to n+1
length of extension product in single pot reaction, all three proteins present ([2]; 10-240 minutes): gradually increased over the time course from n+1 to n+2, then n+3, then n+4
incorporation in single pot reaction in the absence of Ada or EndoIV ([2]; no Ada or no EndoIV): a single incorporation event occurred

Compound: Cc1cn(C2CC(OP(=O)(O)OCCCO)C(COP(=O)(O)OP(=O)(O)OP(=O)(O)O)O2)c(=O)[nH]c1=O (stereo not drawn) [pppT3′PO4PrOH]
incorporation of phosphodiester blocked nucleotides by Pol 217 (Pol 217; Pol buffer, 55° C.): substantial incorporation was not observed

Compound: Cc1cn(C2CC(OP(=O)(O)O)C(COP(=O)(O)OP(=O)(O)OP(=O)(O)O)O2)c(=O)[nH]c1=O (stereo not drawn) [pppT 3′PO4]
incorporation of phosphodiester blocked nucleotides by Pol 217 (Pol 217; Pol buffer, 55° C.): incorporation was observed but the band on the gel chased away

Reference: patent US20130085073A1, “CONTINUOUS EXTENSION AND DEBLOCKING IN REACTIONS FOR NUCLLEIC ACIDS SYNTHESIS AND SEQUENCING” (ILLUMINA CAMBRIDGE LIMITED, priority 2011, published 2013)
